In data set [1] the test system is antigen-induced pulmonary eosinophilia. The data set can be described thus: Rat model of asthma: antigen-induced pulmonary eosinophilia in actively sensitized Brown Norway Rats. The format is in vivo. The following applies: single and multiple challenge models.
From the text: Another study looked at the effects of oral administration of pimecrolimus on antigen-induced pulmonary eosinophilia in actively sensitized Brown Norway Rats.
The conditions of data set [2]: human, in vivo. The method, then: In this study pimecrolimus was rapidly absorbed with a median tmax across all the dose groups and collection days of between 0.8 and 2.0 hours. […] There was no effect of age or weight on the apparent clearance of pimecrolimus.
Data set [3] concerns SCID mice reconstituted with CD4+CD45RBHi T cells (SCID-IBD). The data set can be described thus: SCID-IBD mouse model, treatment started the day after T cell transfer. The format is in vivo. An excerpt: It is known that the transfer of syngeneic, naive T lymphocytes (CD4^+CD45RB^Hi) into SCID mice results in a severe colitis and wasting disease, SCID-IBD.
In this study, SCID mice reconstituted with CD4^+CD45RB^Hi T lymphocytes were used. These mice are known to develop chronic colitis with characteristics similar to human IBD, as described above.
[…] […] BW was monitored throughout. On termination, blood was withdrawn, spleen, mesenteric lymph nodes (MLN) and colon were removed. Serum haptoglobin levels were measured (ELISA), colitis was assessed histologically and lymphocyte and neutrophil numbers were calculated from FACS analysis of blood, spleen and MLN cell suspensions.
In order to determine the efficacy of ASM981 treatment in preventing intestinal mucosal damage in SCID-IBD mice, a histological examination of the colon sections was performed according to defined morphological parameters. All colon sections were assessed according to a scheme awarding degrees of severity governed by the extent of cell infiltration and inflammation with a score of 8 being the maximum.

Another data set deals with promoter for human IL-2. Description: IL-2 reporter gene assay. The data set is classed as cell-based. The following applies: read-out: IC50 (concentration required for 50% inhibition).
The test system of data set [4] is gene expression in blood cells. The following applies: days 13 or 14 vs baseline, 30 mg b.i.d. oral.
Method: Pimecrolimus was evaluated as treatment for psoriasis using an oral dose of 60 mg (30 mg b.i.d) during a 4-week clinical study. The cohort included 10 patients; 8 received the treatment and 2 received a placebo. Blood samples were collected before the first administration to establish the gene expression baseline and on days 13 or 14 after treatment with pimecrolimus or placebo and submitted to gene expression analysis in order to gain insights into the mechanisms of action of the compound.
The RNA from blood samples drawn from each patient in the study was extracted and tested on individual DNA microarrays, thus allowing, for each patient, a comparison of gene expression before and after pimecrolimus treatment. […] Genes that were consistently modulated were sorted in functional categories.
Data set [5] deals with allergic contact dermatitis (ACD). Description: Skin inflammation and lymph nodes during sensitization and elicitation phase of ACD. The data set is classed as in vivo.
A short description of a further data set: in vivo. The note with it: rat, po, 25 mg/kg. The method, then: In another study designed to explore the differences between pimecrolimus and FK506 and to determine whether these differences might be associated with a different tissue distribution, the exposure to pimecrolimus and FK506 in various organs after oral administration were measured. Animals received 2 oral doses of 25 mg/kg in an interval of 2 hours. […] Pimecrolimus was found consistently to have a higher skin/blood concentration ratio than FK506 (2 hours: 7.3 vs. 2.8; 6 hours: 13 vs. […]; 24 hours: 36 vs. 6.0). The AUC0-24h in skin calculated for pimecrolimus was twice as high as with FK506.
These distribution characteristics are relevant not only for oral, but also for topical application, as the compound enters systemic circulation after permeation through the skin.

Data set [6] deals with allergic contact dermatitis (ACD). Description: Rat model of allergic contact dermatitis (ACD). The format is in vivo. The following applies: oral, same doses.
Data set [7] deals with mixed-lymphocyte reaction. The data set can be described thus: mixed-lymphocyte reaction (MLR) assay. The format is cell-based, mouse. The source says: In addition to the IL-2 reporter gene assay, the concentration of immunosuppressants, such as pimecrolimus and FK506 can be measured by the mixed-lymphocyte reaction (see Meo, “The MLR in the Mouse”, Immunological Methods, Lefkovits and Pernis, Eds., p. 227 Academic Press, NY).

For data set [8] the following is noted: in vivo, po.
Data set [9] concerns allergen induced airway eosinophilia. Description: Mouse model of asthma: aeroallergen induced eosinophil influx into the lungs of sensitized mice. The data set is classed as in vivo.
The subject of data set [10] is SCID mice reconstituted with CD4+CD45RBHi T cells (SCID-IBD). Description: SCID-IBD mouse model, delayed treatment of established IBD. The format is in vivo. The note with it: 100 mg/kg/day p.o. started after 7, 14 or 21 days, until 41 days. The method, then: In order to determine if pimecrolimus is also effective once IBD is established, SCID mice were treated with pimecrolimus at a dose level of 100 mg/kg/day at days 7, 14 or 21 following the transfer of the disease causing CD4^+ T cells. The study was terminated after 41 days, i.e., the mice were treated for 33, 26 and 19 days, respectively. The results are shown in FIGS. 10-12, and described below.
SCID mice were reconstituted with 2×10^5 CD4^+CD45RB^Hi T cells and treatment with pimecrolimus (100 mg/kg/day p.o.) started after 7, 14 or 21 days and continued daily until 41 days. Treatment with the placebo formulation started after 7 days. BW was monitored once a week for the first 2 weeks and then twice weekly. Data are expressed as mean percent BW relative to the weight on day 0±s.e.m. for n=9 (PBS), n=8 (ASM(7d) & ASM(21d) and n=7 (ASM(14d) and placebo) mice per group. PBS refers to the non-transferred mice which have been pooled with regard to percent BW values since no treatment dependent changes were found. p<0.01 relative to the placebo-treated group at 41 days.
SCID mice were reconstituted with 2×10^5 CD4^+CD45RB^Hi T cells and treatment with pimecrolimus (100 mg/kg/day p.o.) started after 7,14 or 21 days and continued daily until 41 days. […] Data are expressed as mean haptoglobin (mg/mL)±s.e.m. for n=9 (PBS), n=8 (ASM(7d)) and n=7 (ASM(14d), ASM(21d) and placebo) mice per group. […]

For the next data set, the system named is CYP3A enzyme subfamily. Description: Elimination / metabolism of pimecrolimus. The data set is classed as in vitro ADME.
In a further data set the test system is psoriatic patients. The following applies: human, in vivo.
The test system of data set [11] is systemic immune responses. The data set can be described thus: Models of systemic immunosuppression (graft-versus-host reaction, antibody formation to sheep red blood cells, kidney transplantation). The format is in vivo, rat. An excerpt:
Pimecrolimus (also called ASM981 and ELIDEL®) is an ascomycin macrolactam-derivative with anti-inflammatory properties, chemical name is 33-epichloro-33-desoxy-ascomycin. Pimecrolimus is an ascomycin macrolactam-derivative developed originally for topical and oral treatment of inflammatory skin diseases such as atopic dermatitis and psoriasis. Pimecrolimus binds to macrophilin-12 and inhibits the Ca-dependent phosphatase calcineurin. As a consequence, it inhibits T cell activation and blocks the transcription and release of both Th1 and Th2 inflammatory cytokines. […] Tachyphylaxis has not been observed.

The test system of another data set is IBD patients. The following applies: cited from earlier work.

Entries after “also recorded” stand apart in the source; their conditions may differ. Like-named read-outs stand apart in the source and are kept apart here. Bounds are passed on as bounds.

From the text for promoter for human IL-2: The reporter gene is any gene expressing a readily observable product, e.g., an enzyme marker such as β-galactosidase or luciferase, or any other suitable enzyme marker. For example, where the enzyme marker is β-galactosidase, the reporter gene is, e.g., a bacterial lacZ gene; where the enzyme marker is luciferase, the gene is, e.g., a Phorinus luciferase gene. […] The promoter gene is a promoter gene for a cytokine or protein for which transcription is stimulated or suppressed by the drug to be monitored.
Blood samples from the patient are diluted, their effect on gene expression in the above described system is measured, and the assay is standardized using known concentrations of the immunosuppressive material.
Method for psoriatic patients: A clinical study was initiated with an oral formulation of pimecrolimus to treat psoriatic patients. Pimecrolimus was evaluated as treatment for psoriasis using an oral dose of 60 mg (30 mg b.i.d) during a 4-week clinical study. The cohort included 10 patients; 8 received the treatment and 2 received a placebo.
The dose used in the study was 60 mg/day, given as 30 mg b.i.d. To make this dose the 20 mg tablets were cut in half using a special cutter (Tablettenteiler NR.96) so as to obtain 30 mg of pimecrolimus or a matched amount of placebo.
In this study the relationship of trough concentration to clinical results was also determined.

Turning to “33-epichloro-33-desoxy-ascomycin [Pimecrolimus]”, the “allergen induced airway eosinophilia and IL-4 cytokine production” value in [1] was “inhibit”. Further, the time to steady-state in [2] lay within 6 to 13 days. In addition, in data set [2] (po), the “dose dependence of Cmax and AUCτ” value is “dose proportional”; the “effect of age or weight on the apparent clearance” value was “no effect”; the “trough concentration associated with a significant clinical response in the target epithelial tissue” value was no less than 7 ng/mL. Further, in [2] (po, 10 mg), the “AUCτ,b Mean ± SD” value is recorded as 102.8 ± 41 .4 ng · h/mL. In data set [2] (po, 20 mg), the “Cmax,b Mean ± SD” value was 42 4 ± 10.8 ng/mL. Further, in data set [3] (30 mg/kg/day p.o.), the “colitis, histological examination of colon sections” value (shortened to “colitis, histological examination”) was “moderate to severe inflammation”. In addition, in [3] (60 mg/kg/day p.o.), the “colitis, histological examination” value is reported as “moderate”. In addition, the “inhibition of lymphocyte numbers in blood, spleen and MLN” value in [3] (100 mg/kg/day) is reported as “not observed”. Moreover, the “mice with macroscopically normal feces” value in data set [3] (100 mg/kg/day group) is recorded as “Approximately half of the mice”. Also, in data set [3] (100 mg/kg/day p.o.), the “colitis, histological examination” value was “only mildly inflamed colons” and the “neutrophil infiltration into the colon (myeloperoxidase activity in colon homogenates)” value is on record as “completely blocked”. In addition, in [3] (oral, 4 weeks, dose range 30-100 mg/kg/day, dose-responsive), the “loss of BW associated with the disease” value is “prevented the severe loss of BW”. In addition, in data set [3] (p.o., 30-100 mg/kg/day), the diarrhea entry is reported as “improved in a dose-dependent fashion” and the “severe colitis relative to placebo-treated SCID-IBD mice” value is reported as “significantly inhibited”. Further, the IC50 with promoter for human IL-2 came to 1.5 nM. In addition, in data set [4], the “expression of Kallistatin” value is “up-regulated”; the “expression of asthma related genes (RANTES, GALECTIN-3, Thromboxane A2 receptor, Glutathione peroxidase)” value is “specifically and significantly down-regulated”; the “expression of genes necessary for chemotaxis and cellular migration (LFA-1, P-selectin ligand, L-selectin)” value is listed as “dramatic down-regulation”; the “expression of genes of the Macrolactam target pathway (macrophilin 12), cellular activation and proliferation (Histone2, Histone 3.3, cyclin D2)” value is on record as “down-regulate”. In addition, in data set [4], the “expression of inflammatory mediators (Leukotriene A4 hydrolase, prostaglandin endoperoxide synthase)” value was “strongly down regulate”. The “primary site of action” value in data set [5] is reported as “primarily interferes with inflammation in the skin”. In “in vivo”, the “AUC0-24h in skin relative to FK506” value is recorded as “twice as high”; the “exposure in all other tissues, including blood, lymph nodes and kidney” value is “lower than to FK506”. Further, the “efficacy compared to FK506” value in data set [6] is given as “superior”. The same compound came in with an IC50 in data set [7] of 9 nM. Further, the drug accumulation entry in [8] was “does not lead to drug accumulation in the blood or tissues”. The “allergen induced airway eosinophilia and IL-4 cytokine production” value in data set [9] (mouse, single and multiple challenge models) is given as “inhibit”. In addition, the “eosinophil count in the lung and eosinophil peroxidase activity” value in [9] (sensitized mice, oral administration) was “able to reduce”. Further, in data set [10], the “blood and spleen neutrophilia associated with established/ongoing colitis” value is “strongly inhibits”; the “loss of BW associated with established/ongoing mild to severe colitis” value is “highly-effective in reversing the loss of BW”. Further, in the data set on CYP3A enzyme subfamily, the route of elimination entry is given as “predominantly via metabolism involving an oxidative mechanism catalyzed by the CYP3A enzyme subfamily”. Moreover, in the data set with psoriatic patients, the “change in physical examination, blood pressure, electrocardiogram, safety laboratory tests or renal function” value is “no clinically significant change was observed” and the “serious adverse side effects” value is reported as “no serious adverse side effects in any patient”. In data set [11] (rats, q.d., s.c.), the “therapeutic window of anti-inflammatory activity in the skin versus systemic immunosuppression as compared to FK506” value is listed as “clearly increased therapeutic window”. The “systemic immunosuppressive effects compared to CyA or FK506” value in data set [11] (transplantation and vaccination models) was “only a low potential to impair systemic immune responses; also recorded: minimal general systemic immunosuppressive effects”.

For the compound `Cn1cnc([N+](=O)[O-])c1Sc1ncnc2nc[nH]c12` [AZA, Azathioprine, reference compound], in the data set on IBD patients (human, in vivo), the “patients who get pancreatitis or more severe allergic reactions” value is 3-15%.

As to `C=CC[C@@H]1/C=C(\C)C[C@H](C)C[C@H](OC)[C@H]2O[C@@](O)(C(=O)C(=O)N3CCCC[C@H]3C(=O)O[C@H](/C(C)=C/[C@@H]3CC[C@@H](O)[C@H](OC)C3)[C@H](C)[C@@H](O)CC1=O)[C@H](C)C[C@@H]2OC` [FK506, tacrolimus, reference compound], the “primary site of action” value in data set [5] is given as “acts primarily on the subcutaneous lymphoid tissue”. Besides, in the data set “in vivo”, the Kp at 2 h is 2.8 and the Kp at 24 h was found to be 6. The skin/blood concentration ratio in the data set “in vivo” (6 h) was found to be 1.6. This compound also had an IC50 in data set [7] (Mus musculus) of 1 nM.

As to `O=C(O)c1cc(/N=N/c2ccc(S(=O)(=O)Nc3ccccn3)cc2)ccc1O` [Sulphasalazine, reference compound], the “healthy control subjects reporting side effects related to the sulphapyridine moiety” value in the data set on IBD patients (healthy control subjects) was no more than 80%. Besides, in the data set with IBD patients (patients), the “patients reporting side effects related to the sulphapyridine moiety” value is “up to 45%”.

As to `C[C@@H]1C[C@H]2[C@@H]3CCC4=CC(=O)C=C[C@]4(C)[C@@]3(F)[C@@H](O)C[C@]2(C)[C@@]1(O)C(=O)CO` [dexamethasone, Dexamethasone, reference compound], the “BW at the doses needed to inhibit colitis” value in data set [3] (3 and 10 mg/kg/day p.o.) is “steroid-related accelerated loss in BW”.

With “Infliximab: chimeric anti-TNF alpha antibody”, the “patients in whom remission is achieved” value in the data set on IBD patients (CD patients, infusion) is “up to 60%”. For the same compound, in the data set with IBD patients (e.g., nausea, upper respiratory tract infections, abdominal pain and headache), the “patients who develop side effects” value is “up to 60%”. Moreover, in the data set with IBD patients (human, in vivo), the “patient population which develops human anti-chimeric antibodies” value is 13-30% and the “patients who suffered serious infusion reactions” value is given as “Sixteen percent”.

Source of the values: patent publication US20030119797A1, “Methods for selective immunomodulation” (priority 2001, published 2003).
